Data reported in PMC6277767, “Broad and Region-Specific Impacts of the Synthetic Cannabinoid CP 55,940 in Adolescent and Adult Female Mouse Brains” (Frontiers in Molecular Neuroscience, 2018).

Test system: CD1 female mouse brain lipidome
Experiment: Brain-region lipid levels (HPLC/MS/MS lipidomics) 2 h after single i.p. 3 mg/kg CP 55,940 vs vehicle
Assay type: in vivo
Parameters: N-arachidonoyl phenylalanine level, Mean / N-stearoyl tryptophan level, Mean / N-stearoyl proline level, Mean / N-stearoyl leucine level, Mean / N-stearoyl phenylalanine level, Mean / N-stearoyl serine level, Mean / N-stearoyl methionine level, Mean: unit: moles per gram
Details: cortex
Experimental: The Bloomington Institutional Animal Care and Use Committee of Indiana University reviewed and approved the animal procedures. Female mice from the CD1 strain were utilized to match our study examining THC’s effects on the brain lipidome ([Leishman et al., 2018]). Mice were given a single i.p. injection of either 3 mg/kg CP or 1:1:18 cremophor:ethanol:saline vehicle (please refer to the section “3 mg/kg CP Is Relevant for Synthetic Cannabinoid Abuse and Has Stronger Effects on the Female Mouse Brain Lipidome During Adolescence” for a justification of dose and use of female mice). Three different age groups were given injections: PND 35 and PND 50 adolescents, and adult mice (PND 113). At least eight mice in each age group received CP and at least eight received vehicle. Matching the THC study time course ([Leishman et al., 2018]), mice were sacrificed via rapid decapitation 2 h after injection. Brains were immediately removed and flash-frozen in liquid nitrogen, and then stored at -80°C until dissections were performed. Brains were dissected on an ice-cold dissection plate into the following regions: STR, HIPP, CER, THAL, CTX, HYP, MID, and STEM. These abbreviations for these brain areas will be used exclusively when discussing the results generated by these specific dissections. Each dissected area was immediately placed in liquid nitrogen and then stored at -80°C until used for lipid extraction.
Tissue extracts were performed as previously described ([Bradshaw et al., 2006]; [Stuart et al., 2013]; [Raboune et al., 2014]; [Leishman et al., 2016a],[b], [2017], [2018]). First, samples were shock frozen in liquid nitrogen, weighed, and transferred to a centrifuge tube. The mass of the largest sample was multiplied by 50 to determine how many milliliters of HPLC-grade methanol (Fisher, Fair Lawn, NJ, United States) to add. Then, samples were spiked with 500 pmol deuterium-labeled NAGly (d8NAGly; Cayman Chemical, Ann Arbor, MI, United States). Samples were placed on ice in darkness for 2 h then individually homogenized and centrifuged at 19,000 × g for 20 min at 20°C. Supernatants were diluted with HPLC water (purified in house) to make a solution of 75% water, 25% supernatant. Lipids were partially purified on C18 solid phase extraction columns (Agilent, Palo Alto, CA, United States). A series of four elutions with 1.5 mL of 60%, 75%, 85%, and 100% methanol were collected ([Stuart et al., 2013]; [Leishman et al., 2016a],[b], [2018]).
As previously described ([Bradshaw et al., 2006]; [Tan et al., 2006]; [Smoum et al., 2010]; [Stuart et al., 2013]; [Tortoriello et al., 2013]; [Raboune et al., 2014]; [Leishman et al., 2016a],[b], [2017], [2018]), samples were analyzed using an Applied Biosystems API 3000 triple quadrupole mass spectrometer with electrospray ionization (Foster City, CA, United States). Using an Agilent XDB-C18 reversed phase analytical column and optimized mobile phase gradients, 20 μL from each elution were chromatographed. Two Shimadzu 10ADvp pumps (Columbia, MD, United States) provided the pressure for gradient elution. Mobile phase A: 20% methanol, 80% water (v/v) and 1 mM ammonium acetate (Sigma, St. Louis, MO, United States). Mobile phase B: 100% methanol, 1 mM ammonium acetate. Every method run began with 0% mobile phase B, reached 100% mobile phase B flowing at 0.2 mL/min, and gradually returned to 0% mobile phase B.
This screening library will be referred to as the lipidome when discussing data from this study. HPLC/MS/MS data were analyzed using Analyst software (Applied Biosystems) ([Bradshaw et al., 2006]; [Tan et al., 2006]; [Stuart et al., 2013]; [Tortoriello et al., 2013]; [Raboune et al., 2014]; [Leishman et al., 2016a],[b], [2017], [2018]). Chromatograms (Supplementary Figure 3) were generated by determining the retention time of analytes from the analytical column with a [M-1] or [M+1] parent peak and a fragmentation peak corresponding to the programmed values. […]

[1] = PND 50 female mice, 3mg/kg CP 55,940
[2] = WT adult female mice, 3mg/kg CP 55,940

CCCCCCC(C)(C)c1ccc([C@@H]2C[C@H](O)CC[C@H]2CCCO)c(O)c1 [CP 55,940]
N-palmitoyl leucine level, Mean [1]: 1.98E-12
N-palmitoyl methionine level, Mean [1]: 1.01E-12
N-palmitoyl phenylalanine level, Mean [1]: 1.98E-12
N-palmitoyl proline level, Mean [1]: BDL
N-palmitoyl serine level, Mean [1]: 4.17E-11
N-palmitoyl tryptophan level, Mean [1]: BDL
N-palmitoyl tyrosine level, Mean [1]: 6.65E-13
N-palmitoyl valine level, Mean [1]: 3.13E-13
N-stearoyl GABA level, Mean [1]: 1.55E-11
N-stearoyl alanine level, Mean [1]: 3.67E-12
N-stearoyl ethanolamine level, Mean [1]: 2.8E-12
N-stearoyl glycine level, Mean [1]: 1.45E-12
N-stearoyl leucine level, Mean [1]: 2.21E-12
N-stearoyl methionine level, Mean [1]: 1.13E-12
N-stearoyl phenylalanine level, Mean [1]: 2.99E-12
N-stearoyl proline level, Mean [1]: BDL
N-stearoyl serine level, Mean [1]: 3.75E-11
N-stearoyl tryptophan level, Mean [1]: BDL
N-stearoyl tyrosine level, Mean [1]: 2.52E-13
Oleic acid level, Mean [1]: 1.6E-09
PGE2 level, Mean [1]: 1.58E-10
PhosphoLEA level, Mean [1]: 3.22E-12
THC level, Mean [1]: BDL
N-arachidonoyl GABA level, Mean [2]: 1.28E-11
N-arachidonoyl alanine level, Mean [2]: 1.09E-12
N-arachidonoyl ethanolamine level, Mean [2]: 2.77E-11
N-arachidonoyl glycine level, Mean [2]: 1.07E-12
N-arachidonoyl phenylalanine level, Mean [2]: 5.77E-14
N-docosahexaenoyl GABA level, Mean [2]: 6.57E-12
N-docosahexaenoyl ethanolamine level, Mean [2]: 2.54E-11
N-docosahexaenoyl glycine level, Mean [2]: 8.32E-14
N-docosahexaenoyl leucine level, Mean [2]: 8.03E-13
N-docosahexaenoyl phenylalanine level, Mean [2]: 3E-14
N-linoleoyl GABA level, Mean [2]: 4.08E-12
N-linoleoyl ethanolamine level, Mean [2]: 2.93E-11
N-linoleoyl glycine level, Mean [2]: 5.03E-14
N-linoleoyl leucine level, Mean [2]: 9.31E-14
N-oleoyl GABA level, Mean [2]: 9.86E-12
N-oleoyl alanine level, Mean [2]: 2.22E-12
N-oleoyl ethanolamine level, Mean [2]: 1.38E-10
N-oleoyl glycine level, Mean [2]: 2.9E-13
N-oleoyl leucine level, Mean [2]: 7.57E-13
N-oleoyl phenylalanine level, Mean [2]: 3.2E-13
N-palmitoyl GABA level, Mean [2]: 1.4E-11
N-palmitoyl alanine level, Mean [2]: 2.07E-12
N-palmitoyl ethanolamine level, Mean [2]: 3.62E-11
N-palmitoyl glycine level, Mean [2]: 9.43E-13
N-palmitoyl leucine level, Mean [2]: 1.16E-12
N-palmitoyl methionine level, Mean [2]: 2.58E-12
N-palmitoyl phenylalanine level, Mean [2]: 2.56E-13
N-stearoyl GABA level, Mean [2]: 1.05E-11
N-stearoyl alanine level, Mean [2]: 3.38E-12
N-stearoyl ethanolamine level, Mean [2]: 3.18E-11
N-stearoyl glycine level, Mean [2]: 1.95E-12
N-stearoyl leucine level, Mean [2]: 1.32E-12
N-stearoyl methionine level, Mean [2]: 3.92E-13
N-stearoyl phenylalanine level, Mean [2]: 1.71E-13
2-palmitoyl glycerol Direction (rel to Veh) (PND 35, 3 mg/kg CP 55,940): ↑
2-palmitoyl glycerol, Magnitude (x Veh level) (PND 35, 3 mg/kg CP 55,940): 1.57 x Veh level
6-ketoPGF1α Direction (rel to Veh) (PND 35, 3 mg/kg CP 55,940): ↓
6-ketoPGF1α Magnitude (x Veh level) (PND 35, 3 mg/kg CP 55,940): 0.68 x Veh level
N-arachidonoyl GABA Direction (rel to Veh) (PND 35, 3 mg/kg CP 55,940): ↓
N-arachidonoyl GABA Magnitude (x Veh level) (PND 35, 3 mg/kg CP 55,940): 0.83 x Veh level
N-arachidonoyl alanine Direction (rel to Veh) (PND 35, 3 mg/kg CP 55,940): ↓
N-arachidonoyl alanine Magnitude (x Veh level) (PND 35, 3 mg/kg CP 55,940): 0.77 x Veh level
N-arachidonoyl glycine Direction (rel to Veh) (PND 35, 3 mg/kg CP 55,940): ↓
N-arachidonoyl glycine Magnitude (x Veh level) (PND 35, 3 mg/kg CP 55,940): 0.75 x Veh level
N-arachidonoyl methionine Direction (rel to Veh) (PND 35, 3 mg/kg CP 55,940): ↓
N-arachidonoyl methionine, Magnitude (x Veh level) (PND 35, 3 mg/kg CP 55,940): 0.60 x Veh level
N-arachidonoyl phenylalanine Direction (rel to Veh) (PND 35, 3 mg/kg CP 55,940): ↓
N-arachidonoyl phenylalanine, Magnitude (x Veh level) (PND 35, 3 mg/kg CP 55,940): 0.76 x Veh level
N-arachidonoyl serine Direction (rel to Veh) (PND 35, 3 mg/kg CP 55,940): ↓
N-arachidonoyl serine Magnitude (x Veh level) (PND 35, 3 mg/kg CP 55,940): 0.75 x Veh level
N-arachidonoyl taurine Direction (rel to Veh) (PND 35, 3 mg/kg CP 55,940): ↓
N-arachidonoyl taurine Magnitude (x Veh level) (PND 35, 3 mg/kg CP 55,940): 0.83 x Veh level
N-arachidonoyl tyrosine Direction (rel to Veh) (PND 35, 3 mg/kg CP 55,940): ↓
N-arachidonoyl tyrosine, Magnitude (x Veh level) (PND 35, 3 mg/kg CP 55,940): 0.73 x Veh level
N-docosahexaenoyl GABA Direction (rel to Veh) (PND 35, 3 mg/kg CP 55,940): ↓
N-docosahexaenoyl GABA Magnitude (x Veh level) (PND 35, 3 mg/kg CP 55,940): 0.88 x Veh level
N-docosahexaenoyl glycine Direction (rel to Veh) (PND 35, 3 mg/kg CP 55,940): ↓
N-docosahexaenoyl glycine Magnitude (x Veh level) (PND 35, 3 mg/kg CP 55,940): 0.78 x Veh level
N-docosahexaenoyl leucine Direction (rel to Veh) (PND 35, 3 mg/kg CP 55,940): ↑
N-docosahexaenoyl leucine Magnitude (x Veh level) (PND 35, 3 mg/kg CP 55,940): 1.52 x Veh level
N-docosahexaenoyl serine Direction (rel to Veh) (PND 35, 3 mg/kg CP 55,940): ↓
N-docosahexaenoyl serine Magnitude (x Veh level) (PND 35, 3 mg/kg CP 55,940): 0.62 x Veh level
N-docosahexaenoyl valine Direction (rel to Veh) (PND 35, 3 mg/kg CP 55,940): ↑
N-docosahexaenoyl valine Magnitude (x Veh level) (PND 35, 3 mg/kg CP 55,940): 1.37 x Veh level
N-linoleoyl GABA Direction (rel to Veh) (PND 35, 3 mg/kg CP 55,940): ↓
N-linoleoyl GABA Magnitude (x Veh level) (PND 35, 3 mg/kg CP 55,940): 0.88 x Veh level
N-linoleoyl glycine Direction (rel to Veh) (PND 35, 3 mg/kg CP 55,940): ↓
N-linoleoyl glycine Magnitude (x Veh level) (PND 35, 3 mg/kg CP 55,940): 0.69 x Veh level
N-oleoyl GABA Direction (rel to Veh) (PND 35, 3 mg/kg CP 55,940): ↓
N-oleoyl GABA Magnitude (x Veh level) (PND 35, 3 mg/kg CP 55,940): 0.81 x Veh level
N-oleoyl alanine Direction (rel to Veh) (PND 35, 3 mg/kg CP 55,940): ↓
N-oleoyl alanine Magnitude (x Veh level) (PND 35, 3 mg/kg CP 55,940): 0.75 x Veh level
N-oleoyl glycine Direction (rel to Veh) (PND 35, 3 mg/kg CP 55,940): ↓
N-oleoyl glycine Magnitude (x Veh level) (PND 35, 3 mg/kg CP 55,940): 0.89 x Veh level
N-oleoyl leucine Direction (rel to Veh) (PND 35, 3 mg/kg CP 55,940): ↑
N-oleoyl leucine Magnitude (x Veh level) (PND 35, 3 mg/kg CP 55,940): 1.22 x Veh level
N-oleoyl methionine Direction (rel to Veh) (PND 35, 3 mg/kg CP 55,940): ↓
N-oleoyl methionine, Magnitude (x Veh level) (PND 35, 3 mg/kg CP 55,940): 0.67 x Veh level
N-oleoyl valine Direction (rel to Veh) (PND 35, 3 mg/kg CP 55,940): ↑
